Test results published in publication PMC12193579, “Pro-Apoptotic Activity of 1-(4,5,6,7-Tetrabromo-1H-benzimidazol-1-yl)propan-2-one, an Intracellular Inhibitor of PIM-1 Kinase in Acute Lymphoblastic Leukemia and Breast Cancer Cells” (International Journal of Molecular Sciences, 2025).
“Also recorded” adds a separate entry of the source. Like-named read-outs stand apart in the source and are kept apart here. Values belong to the compound of their own block, whether it stands above or below them.

Tests used:
[1] = biological target: T1, recombinant human CK2 catalytic subunit (rhCK2α) (Homo sapiens, UniProt P68400); test: radiometric P81 filter isotopic kinase assay, CK2α; type: biochemical; conditions: for remaining activity at 2 µM: cpd. concentration 2 μM; for remaining activity at 2 µM / remaining activity at 5 µM / remaining activity at 20 µM: read-out: CK2α Residual Activity [%]; for remaining activity at 5 µM: cpd. concentration 5 μM; for remaining activity at 20 µM: cpd. concentration 20 μM
T1 construct: made in house
Procedure: (§1) Synthetic peptide […] served as the substrate for CK2, while peptide […] was used as the substrate for PIM-1.
(§2) The synthesized compounds were evaluated for their inhibitory activity against human CK2α, the human CK2 holoenzyme, and PIM-1 using the P81 filter-based isotopic assay, as previously described. […] The experimental data were fitted to a dose–response curve using non-linear regression analysis (variable slope) Y = Bottom + (Top − Bottom)/(1 + 10^((LogIC50 − X) × HillSlope) equation in GraphPad Prism (Prism 9, version 9.0.1).

[2] = biological target: T2, PIM-1 kinase (Homo sapiens, UniProt P11309); test: radiometric P81 filter isotopic kinase assay, PIM-1; type: biochemical; conditions: for remaining activity at 2 µM: cpd. concentration 2 μM; for remaining activity at 2 µM / remaining activity at 5 µM / remaining activity at 20 µM: read-out: PIM-1 Residual Activity [%]; for remaining activity at 5 µM: cpd. concentration 5 μM; for remaining activity at 20 µM: cpd. concentration 20 μM
T2 construct: made in house
Procedure: as §1, §2

[3] = tested on: CCRF-CEM (acute lymphoblastic leukemia); test: MTT-based viability assay, CCRF-CEM; type: cell-based, human; conditions: for IC50: Homo sapiens, CCRF-CEM, 48 h, read-out: IC50 [µM] CCRF-CEM; for SI (selectivity index) CCRF-CEM: IC50 for Vero/IC50 for cancer cells
Procedure: (§3) 3. The cytotoxicity of the newly obtained inhibitors, i.e., 1, 2, and 4 was tested towards four cell lines, i.e., CCRF-CEM (acute lymphoblastic leukemia ALL), MCF-7 (breast carcinoma), MDA-MB-231 (triple negative breast carcinoma), and Vero (Cercopithecus aethiops kidney).
(§4) The CCRF-CEM (acute lymphoblastic leukemia, ALL) and MDA-MB-231 (triple-negative breast adenocarcinoma) cell lines were obtained from the European Collection of Authenticated Cell Cultures (ECACC), while the MCF-7 (hormone-dependent breast adenocarcinoma) and Vero (Cercopithecus aethiops kidney) cell lines were purchased from the American Type Culture Collection (ATCC, Manassas, VA, USA). CCRF-CEM cells were maintained in RPMI-1640 medium, whereas MCF-7 and MDA-MB-231 cells were cultured in DMEM (Sigma-Aldrich Chemical Company, St. Louis, MO, USA). Vero cells were cultured in minimum essential medium eagle (MEM; Sigma-Aldrich). All media were supplemented with 10% fetal bovine serum (FBS), 2 mM L-glutamine, and antibiotics (100 U/mL penicillin and 100 µg/mL streptomycin) (Sigma-Aldrich). Cells were grown in 75-cm^2 culture flasks (Googlab Scientific, Rakocin, Poland) in a humidified atmosphere containing 5% CO2 at 37 °C. All experiments were performed using exponentially growing cultures. Stock solutions of the test compounds were prepared in DMSO and stored at –80 °C for up to one month.
(§5) Following incubation with the tested compounds, the MTT assay was carried out as previously described. Optical density was measured at 570 nm using a BioTek microplate reader (Winooski, VT, USA). All measurements were performed in at least three independent biological replicates.

[4] = tested on: MCF-7 (breast carcinoma); test: MTT-based viability assay, MCF-7; type: cell-based, human; conditions: for IC50: Homo sapiens, read-out: IC50 [µM] MCF-7; for SI (selectivity index) MCF-7: IC50 for Vero/IC50 for cancer cells
Procedure: as §3, §4, §5

[5] = tested on: MDA-MB-231 (breast carcinoma); test: MTT-based viability assay, MDA-MB-231; type: cell-based, human; conditions: for IC50: Homo sapiens, read-out: IC50 [µM] MDA-MB-231
Procedure: as §3, §4, §5

[6] = tested on: Vero (Cercopithecus aethiops kidney); test: MTT-based viability assay, Vero; type: cell-based; conditions: Chlorocebus sabaeus, 48 h, read-out: IC50 [µM] Vero
Procedure: as §3, §4, §5

[7] = tested on: CCRF-CEM cells; test: annexin V/propidium iodide apoptosis, flow cytometry, CCRF-CEM; type: cell-based, human; conditions: 48 h, annexin V binding
Procedure: The results obtained for CCRF-CEM and MCF-7 are shown in Figure 3 and Figure 4, respectively. […] 1, 79.6% of cells were apoptotic.
CCRF-CEM cells were seeded in 24-well plates at a density of 2 × 10^5 cells/mL. The cells were treated with the tested compounds at concentrations of 8, 16, and 32 µM, followed by incubation for 48 h. After treatment, the cells were harvested and processed according to the previously described protocol. Flow cytometric measurements were conducted within 1 h of cell labeling. Viable, necrotic, early apoptotic, and late apoptotic cells were identified using a BD Accuri C6 Plus flow cytometer and analyzed with BD Accuri C6 Plus software, version 1.0.34.1 (BD Biosciences, San Jose, CA, USA).

[8] = tested on: CCRF-CEM cells; test: mitochondrial membrane potential (ΔΨm) JC-1 assay, CCRF-CEM; type: cell-based, human; conditions: 16 µM, 48 h
Procedure: The mitochondrial membrane potential was evaluated by flow cytometry using 5,5′,6,6′-tetrachloro-1,1′,3,3′-tetraethylbenzimidazolocarbocyanine iodide (JC-1; Sigma-Aldrich), as previously described.

[9] = tested on: CCRF-CEM cells; test: cell cycle progression by flow cytometry, CCRF-CEM; type: cell-based, human; conditions: 16 µM, 48 h; control 33%
Procedure: Since CK2 and PIM kinases regulate cell cycle progression, their inhibition may alter the distribution of cells across different cell cycle phases. […] For control cells, the percentage of G2/M cells was 17%. In addition to those changes, we observed cells in the sub-G1 phase, which are apoptotic cells. Accumulation of cells in this phase reflects DNA degradation characteristic of apoptotic cells. The largest percentage of these cells, i.e., 32% was determined in 16 µM 1-treated cells (Figure 6a,b).
(§6) CCRF-CEM and MCF-7 cells were cultured in 6-well plates and treated with the tested compounds for 48 h. After exposure to the compounds, the cells were collected, washed with cold PBS, and fixed in 70% ethanol at –20 °C for at least 24 h. Subsequently, the cells were washed in PBS and stained according to the procedure previously described by our group. The cellular DNA content was measured by flow cytometry using a BD Accuri C6 Plus flow cytometer (BD Biosciences, San Jose, CA, USA). The resulting DNA histograms were analyzed with BD Accuri C6 Plus software (San Diego, CA, USA) to assess the distribution of cells across different phases of the cell cycle.

[10] = tested on: MCF-7 cells; test: cell cycle progression by flow cytometry, MCF-7; type: cell-based, human; conditions: 8 µM, 48 h; control 17%
Procedure: Additionally, we observed the prolongation of G2/M in MCF-7 treated with 1 at the highest concentration. […] 1 induced G2/M phase arrest in MCF-7 with the highest effect detected for the 16 µM concentration, manifested as 32% cells in that stage, whereas in the control, the percentage of G2/M cells was 22%.
as §6

[11] = tested on: CK2 in CCRF-CEM cells (Ser529 in NF-κB p65); test: PhosFlow analysis of NF-κB p65 Ser529 phosphorylation, CCRF-CEM; type: cell-based, human; conditions: 16 µM, 24 h
Procedure: CCRF-CEM cells were prepared following the BD PhosFlow™ Protocol for Human PBMCs using NF-κB p65 (pS529)-PE (#558423), BD PhosFlow™ Perm Buffer III (#558050), Cytofix Fixation Buffer (#554655), and Stain Buffer FBS (#554656), all obtained from Becton Dickinson. Flow cytometric analysis was performed using a BD Accuri C6 Plus cytometer (Becton Dickinson) according to the manufacturer’s instructions.

[12] = tested on: hormone-sensitive human prostate cancer cell line LNCaP; parameters: method as in PMID 22698781; conditions: cited from earlier work
[13] = tested on: Jurkat cells; parameters: method as in PMID 15566294; conditions: read-out: DC50 value, apoptosis of Jurkat cells; cited from earlier work
[14] = tested on: LNCaP cell line; parameters: method as in PMID 29246854; conditions: 48 h of exposure to 10 μM; cited from earlier work
[15] = tested on: mitochondria polarization; parameters: method as in PMID 15566294; conditions: up to a 10 µM concentration; cited from earlier work

T1 sequence (P68400 whole entry): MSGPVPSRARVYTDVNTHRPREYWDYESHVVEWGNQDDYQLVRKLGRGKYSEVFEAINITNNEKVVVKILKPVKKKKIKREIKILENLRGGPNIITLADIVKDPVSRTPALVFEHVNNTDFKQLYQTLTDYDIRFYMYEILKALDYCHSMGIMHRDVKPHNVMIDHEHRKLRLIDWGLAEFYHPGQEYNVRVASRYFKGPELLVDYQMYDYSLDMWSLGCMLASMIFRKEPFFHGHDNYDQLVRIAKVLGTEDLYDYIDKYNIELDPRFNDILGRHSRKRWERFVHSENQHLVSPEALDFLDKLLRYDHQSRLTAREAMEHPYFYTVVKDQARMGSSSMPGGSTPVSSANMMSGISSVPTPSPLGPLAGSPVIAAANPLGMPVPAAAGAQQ
T2 sequence (P11309 whole entry): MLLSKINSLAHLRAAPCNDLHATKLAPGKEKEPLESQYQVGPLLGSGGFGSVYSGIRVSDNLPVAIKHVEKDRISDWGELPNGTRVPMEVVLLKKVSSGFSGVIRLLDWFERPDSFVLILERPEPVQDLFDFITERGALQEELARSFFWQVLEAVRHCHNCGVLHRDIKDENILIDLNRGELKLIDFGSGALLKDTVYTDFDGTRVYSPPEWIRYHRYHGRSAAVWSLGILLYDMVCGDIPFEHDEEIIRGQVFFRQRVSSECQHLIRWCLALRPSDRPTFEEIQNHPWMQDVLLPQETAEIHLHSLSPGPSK

IC50 [1]: 11.1 ± 0.15 µM
remaining activity at 2 µM [1]: 70.9 ± 0.9%
remaining activity at 5 µM [1]: 41.8 ± 2.3%
remaining activity at 20 µM [1]: 20.1 ± 1.2%
IC50 [2]: 2.41 ± 0.29 µM
remaining activity at 2 µM [2]: 58 ± 2.4%
remaining activity at 5 µM [2]: 26.4 ± 1.7%
remaining activity at 20 µM [2]: 9.3 ± 0.3%
IC50 ([3]; MTT): 58.2 ± 5.86 µM
IC50 ([4]; MCF7, MTT, 48 h): 18.4 ± 0.41 µM
IC50 ([5]; MDA-MB-231, MTT, 48 h): 28.2 ± 3.27 µM
SMILES: CC(O)Cn1cnc2c(Br)c(Br)c(Br)c(Br)c21 (stereo not drawn) [compound 2, 1-(4,5,6,7-tetrabromo-1H-benzimidazol-1-yl)propan-2-ol]
SI (selectivity index) CCRF-CEM [3]: 1.65
SI (selectivity index) MCF-7 [4]: 5.21
SI (selectivity index) MDA-MB-231 ([5]; IC50 for Vero/IC50 for cancer cells): 3.4
IC50 ([6]; MTT, non-cancerous cells): 96.1 ± 4.76 µM

SMILES: Brc1c(Br)c(Br)c2[nH]cnc2c1Br [TBBi, 4,5,6,7-tetrabromo-1H-benzimidazole, reference compound]
IC50 [2]: 0.53 ± 0.04 µM
IC50 [3]: 17.6 ± 0.67 µM
IC50 ([4]; MCF7, 48 h): 12.6 ± 2.72 µM
IC50 ([5]; MDA-MB-231, 48 h): 29.7 ± 2.23 µM
IC50 [6]: 24.8 ± 0.9 µM
apoptotic CCRF-CEM cells ([7]; 8 µM): 16%
apoptotic CCRF-CEM cells ([7]; 16 µM): 44%
apoptotic CCRF-CEM cells ([7]; 32 µM): 95%
CCRF-CEM cells with reduced ΔΨm [8]: 37%
CCRF-CEM cells in the S phase [9]: 19%
MCF-7 cells in the S phase [10]: 12%
p65-P-negative CCRF-CEM cells [11]: 28%
LD50 against LNCaP [12]: ≈ 20 µM

SMILES: Brc1c(Br)c(Br)c2[nH]nnc2c1Br [TBBt, 4,5,6,7-tetrabromo-1(2)H-benzotriazole]
DC50 [13]: 17 µM

inhibition of CK2 kinase (in words) [1]: inactive; also recorded: very weak
remaining activity at 2 µM [1]: 102 ± 8.9%
remaining activity at 5 µM [1]: 89.2 ± 8.6%
remaining activity at 20 µM [1]: 82.8 ± 15.4%
inhibition of PIM-1 kinase (in words) [2]: inactive; also recorded: very weak
remaining activity at 2 µM [2]: 82.5 ± 4.2%
remaining activity at 5 µM [2]: 67.4 ± 0.7%
remaining activity at 20 µM [2]: 62.6 ± 0.8%
SMILES: CC(=O)CCn1cnc2c(Br)c(Br)c(Br)c(Br)c21 [compound 3, 4-(4,5,6,7-Tetrabromo-1H-benzimidazol-1-yl)butan-2-one]

SMILES: OCC1OC(n2cnc3c(Br)c(Br)c(Br)c(Br)c32)CC1O [K164, 1-(β-D-2′-deoxyribofuranosyl)-4,5,6,7-tetrabromo-1H-benzimidazole]
apoptotic cells, LNCaP [14]: 91.8%

SMILES: CN(C)c1nc2c(Br)c(Br)c(Br)c(Br)c2[nH]1 [DMAT, 2-Dimethylamino-4,5,6,7-tetrabromo-1H-benzimidazole]
DC50 [13]: 2.7 µM
side effect on mitochondria polarization [15]: does not display any side effect on mitochondria polarization

remaining activity at 2 µM [1]: 72.1 ± 3%
remaining activity at 5 µM [1]: 21.3 ± 1.9%
remaining activity at 20 µM [1]: 15.6 ± 0.3%
IC50 [2]: 3.08 ± 0.07 µM
remaining activity at 2 µM [2]: 66.9 ± 1.1%
remaining activity at 5 µM [2]: 29.1 ± 0.1%
remaining activity at 20 µM [2]: 21.4 ± 0.2%
IC50 ([3]; MTT): 75.3 ± 10.3 µM
IC50 ([4]; MCF7, MTT, 48 h): 41.9 ± 8.37 µM
IC50 ([5]; MDA-MB-231, MTT, 48 h): > 200 µM
SMILES: CC(O)CCn1cnc2c(Br)c(Br)c(Br)c(Br)c21 (stereo not drawn) [compound 4]
SI (selectivity index) CCRF-CEM [3]: 1.75
SI (selectivity index) MCF-7 [4]: 3.15
IC50 ([6]; MTT, non-cancerous cells): 132 ± 19.4 µM

SMILES: Ic1c(I)c(I)c2[nH]cnc2c1I [TIBI, 4,5,6,7-tetraiodo-1H-benzimidazole]
LD50 against LNCaP [12]: ≈ 20 µM
